Test results reported in patent publication US8669254B2, “Pyridine, pyridazine, pyrimidine or pyrazine carboxamides as HDL-cholesterol raising agents” (Hoffman-La Roche Inc., priority 2010, dated 2014).
Where two headings read alike, the source gives them in different places.

Tests used:
[1] = biological target: T1, human CB2 receptor (Homo sapiens, UniProt P34972); assay: CB2 receptor affinity ([3H]-CP-55,940 displacement); type: binding; details: HEK cell membranes, radioligand [3H]-CP-55,940
T1 construct: expressed in transfected cells; host or cells: human embryonic kidney (HEK) cells, Semliki Forest Virus system, membrane preparation
T1 sequence (P34972 whole entry): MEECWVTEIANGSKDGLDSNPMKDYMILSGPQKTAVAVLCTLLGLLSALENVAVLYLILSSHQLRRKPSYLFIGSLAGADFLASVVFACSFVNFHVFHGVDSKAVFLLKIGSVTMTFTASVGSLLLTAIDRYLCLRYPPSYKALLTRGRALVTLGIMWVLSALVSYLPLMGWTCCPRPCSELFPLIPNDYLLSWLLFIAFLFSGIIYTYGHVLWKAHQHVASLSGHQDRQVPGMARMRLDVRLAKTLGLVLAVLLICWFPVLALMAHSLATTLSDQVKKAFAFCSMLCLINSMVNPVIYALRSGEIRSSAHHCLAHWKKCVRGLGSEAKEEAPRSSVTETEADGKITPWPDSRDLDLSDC
Description: (§1) The affinity of the compounds of the invention for cannabinoid CB2 receptors was determined using membrane preparations of human embryonic kidney (HEK) cells in which the human CB2 receptor is transiently transfected using a Semliki Forest Virus system in conjunction with [^3H]-CP-55,940 as radioligand. After incubation of freshly prepared cell membrane preparation with the [^3H]-ligand, with or without addition of compounds of the invention, separation of bound and free ligand was performed by filtration over glass fiber filters. Radioactivity on the filter was measured by scintillation counting.
(§2) The ability of the compounds to displace the radioligand [^3H]-CP-55,940 was measured at a concentration of 10 μM and values provided as [% inhibition @ 10 μM] both for the CB 1 and CB2 receptor assay, The lower % inhibition is, the lower the likelihood of side effects based on CB1 or CB2 receptor inhibition is.

[2] = system: ABCA1 protein; assay: Detection of upregulation of ABCA1 protein in cells (ApoA-I binding, high content image analysis); type: cell-based; details: THP-1 macrophage cells; for % increase of ABCA1 at 3 μM: compound at 3 μM, 24 hrs; for EC50: ABCA1 protein detection assay
Description: The ability of compounds of the invention to increase the level of ABCA1 protein is determined in replicate cultures of THP-1 macrophage cells in 96-well microplates. Cells are plated at an initial density of 100,000 cells/well in 100 μl medium and differentiated to adherent macrophages with the addition of PMA (100 nM) for 68 hrs in 10% fetal bovine serum, 3 μl/L of b-mercaptoethanol, RPMI-1640 medium. Then, cells are incubated with RPMI-1640 medium containing 1% FCS, 25 μg/ml acetylated LDL, for 24 hours at 37°. Following incubation with acetylated LDL, cells are washed twice with 50 μl PBS and incubated with 100 μl of RPMI-1640 medium containing the compound of interest solubilized in DMSO for an additional 24 hrs. The final DMSO concentration in presence of cells is maintained at 0.5%. ApoA-I binding assay using High Content Image Analysis is initiated by replacing with fresh medium, RPMI without Phenol Red, 0.2% BSA containing AlexaFluor®647 labeled ApoA-I for 2 h/37° C./5% CO2. Then, cells are fixed with 4% Formaldehyde in PBS (15 min, RT). Following Nuclei are stained with Hoechst solution (3 μM PBS) and Cytoplasm with Cell Mask Blue (2 μg/ml PBS), 15 min, RT. Finally the stained cells are fixed with a second round of formaldehyde treatment. Fixed stained cells are washed and kept in PBS at 4° C. and can be read immediately until one month after preparation.
The Alexa Fluor 647-labeled Apolipoprotein A-I (20 nM) was prepared as follows: Human recombinant Apolipoprotein A-I (ApoA-I) was exchanged to a buffer of 0.02 M NaHCO3 at pH 8.2 on an NAP desalting column (GE Healthcare) and brought to a concentration to 40 μM (1.13 mg/ml) by adjustment with the same buffer. The ApoA-I was fluorescently labeled by incubation with Alexa Fluor carboxylic acid succimidyl ester (Alexa Fluor 647, Invitrogen A-20006) at a 2:1 molar ratio (Alexa to ApoA-I) for 1 h under shaking at RT). The remaining unconjugated label was removed by buffer exchange to 0.02M NaHCO3 at pH 8.2.
Imaging and data collection were performed on an OPERA confocal microplate imaging reader using a 20× water immersion objective and UV360 or 405 laser to identify the cell nuclei and a 635 laser to identify the fluorescent ApoA-I. Eight fields of view are captured per well. Image capture and analysis was performed with the Acapella software. Background fluorescence detected in control wells without ApoA-I was subtracted.
Using XLfit3 program (ID Business Solutions Ltd. UK), the model 205 for Dose Response One Site is used to calculate the EC50 values. […] Particularly, the compounds of the present invention have EC50 values in a range of 0.1 μM to 3 μM.

[3] = biological target: T2, human CB1 receptor (Homo sapiens, UniProt P21554); assay: CB1 receptor affinity ([3H]-CP-55,940 displacement); type: binding; details: read-out: CB1 receptor affinity [% inhibition @ 10 μM]
T2 construct: expressed in transfected cells; host or cells: human embryonic kidney (HEK) cells, Semliki Forest Virus system, membrane preparation
T2 sequence (P21554 whole entry): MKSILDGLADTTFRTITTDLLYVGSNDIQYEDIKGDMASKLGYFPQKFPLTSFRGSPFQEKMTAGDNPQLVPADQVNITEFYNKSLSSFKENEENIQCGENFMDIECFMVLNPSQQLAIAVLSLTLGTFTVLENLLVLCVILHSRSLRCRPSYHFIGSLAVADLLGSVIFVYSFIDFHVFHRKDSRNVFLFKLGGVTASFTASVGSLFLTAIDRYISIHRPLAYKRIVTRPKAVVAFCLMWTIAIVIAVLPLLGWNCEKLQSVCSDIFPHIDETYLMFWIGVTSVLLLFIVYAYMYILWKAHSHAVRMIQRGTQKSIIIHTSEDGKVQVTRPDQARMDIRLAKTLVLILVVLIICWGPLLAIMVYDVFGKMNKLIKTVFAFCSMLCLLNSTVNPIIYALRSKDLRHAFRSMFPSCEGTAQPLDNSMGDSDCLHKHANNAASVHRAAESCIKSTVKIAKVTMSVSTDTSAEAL
Description: as §1, with “cannabinoid” for “cannabinoid CB2”, “CB1” for “CB2”, “[3H]-CP-55,940” for “[^3H]-CP-55,940”
as §2

[4] = 10 μM, HEK cell membranes, radioligand [3H]-CP-55,940

SMILES	inhibition at 10 µM [1] [%]	% increase of ABCA1 at 3 μM [2] [% @ 3 μM]	inhibition at 10 µM [3, 4] [%]	EC50 [2] [nM]	inhibition at 10 µM [3] [%]
O=C(NC/C(=N/OCC(F)(F)F)C1CC1)c1cnc(OCC(F)(F)F)c(-c2ccc(Cl)c(Cl)c2)c1 [Example 22, N-{2-Cyclopropyl-2-[(E/Z)-2,2,2-trifluoro-ethoxyimino]-ethyl}-5-(3,4-dichloro-phenyl)-6-(2,2,2-trifluoro-ethoxy)-nicotinamide]	9	74	36		
CO/N=C(/CNC(=O)c1cnc(OCC(F)(F)F)c(-c2ccc(Cl)c(Cl)c2)c1)C1CC1 [Example 12, N-{2-Cyclopropyl-2-[(E)-methoxyimino]-ethyl}-5-(3,4-dichloro-phenyl)-6-(2,2,2-trifluoro-ethoxy)-nicotinamide]	47.7	88.4	26.8		
CO/N=C(/CNC(=O)c1cc(-c2ccc(Cl)cc2)c(OCC(F)(F)F)cn1)C1CC1 [Example 32, (E)-4-(4-chlorophenyl)-N-(2-cyclopropyl-2-(methoxyimino)ethyl)-5-(2,2,2-trifluoroethoxy)picolinamide]	29	53	15		
CO/N=C(/CNC(=O)c1cnc(OCC(F)(F)F)c(-c2ccc(Cl)cc2)c1)C1CC1 [Example 14, 5-(4-Chloro-phenyl)-N-{2-cyclopropyl-2-[(E)-methoxyimino]-ethyl}-6-(2,2,2-trifluoro-ethoxy)-nicotinamide]	20.9	157.2	48.2		
CO/N=C1\CCCC[C@@H]1NC(=O)c1cc(-c2ccc(Cl)cc2)c(OCC(F)(F)F)cn1 [Example 9, 4-(4-Chloro-phenyl)-5-(2,2,2-trifluoro-ethoxy)-pyridine-2-carboxylic acid {(S)-2-[(E)-methoxyimino]-cyclohexyl}-amide]	37.6	71.7	15.9		
CO/N=C1\CCCC[C@H]1NC(=O)c1cnc(OCC(F)(F)F)c(-c2ccc(Cl)c(Cl)c2)c1 [Example 8, 5-(3,4-Dichloro-phenyl)-N-{(R)-2-[(E)-methoxyimino]-cyclohexyl}-6-(2,2,2-trifluoro-ethoxy)-nicotinamide]	13.1	63		810	35.2
CO/N=C1\CCCC[C@@H]1NC(=O)c1cnc(OCC(F)(F)F)c(-c2ccc(Cl)c(Cl)c2)c1 [Example 7, 5-(3,4-Dichloro-phenyl)-N-{(S)-2-[(E)-methoxyimino]-cyclohexyl}-6-(2,2,2-trifluoro-ethoxy)-nicotinamide]	3.56	84.6		4720	10.5
CO/N=C1\CCCC[C@@H]1NC(=O)c1cc(-c2ccc(Cl)cc2)c(OCC(F)(F)F)nn1 [Example 17, 5-(4-Chloro-phenyl)-6-(2,2,2-trifluoro-ethoxy)-pyridazine-3-carboxylic acid {(S)-2-[(E)-methoxyimino]-cyclohexyl}-amide]	13.6	76.5	16.6	2630	
CO/N=C(\CNC(=O)c1ncc(OCC2CC2)c(-c2ccc(Cl)cc2)n1)C1CC1 [Example 19, 4-(4-Chloro-phenyl)-5-cyclopropylmethoxy-pyrimidine-2-carboxylic acid {2-cyclopropyl-2-[(Z)-methoxyimino]-ethyl}-amide]	63.8	84.2	28		
NC(=O)CO/N=C1\CCCC[C@@H]1NC(=O)c1cnc(OCC2CC2)c(-c2ccc(Cl)cc2)c1 [Example 5, N-{(S)-2-[(E)-Carbamoylmethoxyimino]-cyclohexyl}-5-(4-chloro-phenyl)-6-cyclopropylmethoxy-nicotinamide]	15.1	65.2	33.1	2020	
